In PubChem BioAssay (NCI):
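GI50 = concentration required for 50% inhibition of growth. TGI denotes the concentration required for complete inhibition of growth.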

Tests used:
Assay in all cases: inhibition of tumour cell growth, NCI panel, 384-well format
786-0 renal = system: 786-0 renal
A498 renal = system: A498 renal
A549 NSCLC = system: A549 NSCLC
ACHN renal = system: ACHN renal
BT-549 breast = system: BT-549 breast
CAKI-1 renal = system: CAKI-1 renal
COLO 205 colon = system: COLO 205 colon
DU-145 prostate = system: DU-145 prostate
EKVX NSCLC = system: EKVX NSCLC
HCC-2998 colon = system: HCC-2998 colon
HCT-116 colon = system: HCT-116 colon
HCT-15 colon = system: HCT-15 colon
HOP-62 NSCLC = system: HOP-62 NSCLC
HOP-92 NSCLC = system: HOP-92 NSCLC
HS 578T breast = system: HS 578T breast
HT29 colon = system: HT29 colon
IGROV1 ovarian = system: IGROV1 ovarian
K-562 leukemia = system: K-562 leukemia
KM12 colon = system: KM12 colon
LOX IMVI melanoma = system: LOX IMVI melanoma
M14 melanoma = system: M14 melanoma
MALME-3M melanoma = system: MALME-3M melanoma
MCF7 breast = system: MCF7 breast
MDA-MB-231 breast = system: MDA-MB-231 breast
MDA-MB-435 melanoma = system: MDA-MB-435 melanoma
MDA-MB-468 breast = system: MDA-MB-468 breast
MOLT-4 leukemia = system: MOLT-4 leukemia
NCI-H226 lung = system: NCI-H226 lung
NCI-H23 lung = system: NCI-H23 lung
NCI-H322M lung = system: NCI-H322M lung
NCI-H522 lung = system: NCI-H522 lung
NCI/ADR-RES ovarian = system: NCI/ADR-RES ovarian
OVCAR-3 ovarian = system: OVCAR-3 ovarian
OVCAR-4 ovarian = system: OVCAR-4 ovarian
OVCAR-5 ovarian = system: OVCAR-5 ovarian
OVCAR-8 ovarian = system: OVCAR-8 ovarian
PC-3 prostate = system: PC-3 prostate
RPMI-8226 leukemia = system: RPMI-8226 leukemia
RXF 393 renal = system: RXF 393 renal
SF-268 CNS = system: SF-268 CNS
SF-295 CNS = system: SF-295 CNS
SF-539 CNS = system: SF-539 CNS
SK-MEL-28 melanoma = system: SK-MEL-28 melanoma
SK-MEL-5 melanoma = system: SK-MEL-5 melanoma
SK-OV-3 ovarian = system: SK-OV-3 ovarian
SN12C renal = system: SN12C renal
SNB-19 CNS = system: SNB-19 CNS
SNB-75 CNS = system: SNB-75 CNS
SW-620 colon = system: SW-620 colon
T-47D breast = system: T-47D breast
TK-10 renal = system: TK-10 renal
U251 glioblastoma = system: U251 glioblastoma
UACC-257 melanoma = system: UACC-257 melanoma
UACC-62 melanoma = system: UACC-62 melanoma
UO-31 renal = system: UO-31 renal

Cc1c(NC(=O)OC[C@@H]2COCCN2)cn2ncnc(Nc3ccc4c(cnn4Cc4cccc(F)c4)c3)c12
GI50 ([…]-0 renal): 1.42 µM | TGI (786-0 renal): 2.91 µM | GI50 (A498 renal): 1.4 µM | TGI (A498 renal): 3.24 µM | GI50 (A549 NSCLC): 2.82 µM | TGI (A549 NSCLC): 13.6 µM | GI50 (ACHN renal): 0.815 µM | TGI (ACHN renal): 12.7 µM | GI50 (BT-549 breast): 2.03 µM | TGI (BT-549 breast): 4.36 µM | GI50 (CAKI-1 renal): 1.9 µM | TGI (CAKI-1 renal): 14.3 µM | GI50 (COLO 205 colon): 2.96 µM | TGI (COLO 205 colon): 7.54 µM | GI50 (DU-145 prostate): 2.44 µM | TGI (DU-145 prostate): 13.6 µM | GI50 (EKVX NSCLC): 1.02 µM | TGI (EKVX NSCLC): 5.16 µM | GI50 (HCC-2998 colon): 1.66 µM | TGI (HCC-2998 colon): 3.61 µM | GI50 (HCT-116 colon): 2.35 µM | TGI (HCT-116 colon): 4.88 µM | GI50 (HCT-15 colon): 2.19 µM | TGI (HCT-15 colon): 5.47 µM | GI50 (HOP-62 NSCLC): 2.01 µM | TGI (HOP-62 NSCLC): 9.3 µM | GI50 (HOP-92 NSCLC): 2.46 µM | TGI (HOP-92 NSCLC): 9.57 µM | GI50 (HS 578T breast): 2.33 µM | TGI (HS 578T breast): 5.32 µM | GI50 (HT29 colon): 1.81 µM | TGI (HT29 colon): 3.47 µM | GI50 (IGROV1 ovarian): 0.0935 µM | TGI (IGROV1 ovarian): 4.96 µM | GI50 (K-562 leukemia): 1.79 µM | TGI (K-562 leukemia): 3.32 µM | GI50 (KM12 colon): 3.74 µM | TGI (KM12 colon): 13.5 µM | GI50 (LOX IMVI melanoma): 1.7 µM | TGI (LOX IMVI melanoma): 3.2 µM | GI50 (M14 melanoma): 2.08 µM | TGI (M14 melanoma): 4.29 µM | GI50 (MALME-3M melanoma): 2.23 µM | TGI (MALME-3M melanoma): 4.77 µM | GI50 (MCF7 breast): 3 µM | TGI (MCF7 breast): 10.4 µM | GI50 (MDA-MB-231 breast): 1.92 µM | TGI (MDA-MB-231 breast): 4.65 µM | GI50 (MDA-MB-435 melanoma): 4.66 µM | TGI (MDA-MB-435 melanoma): 13.3 µM | GI50 (MDA-MB-468 breast): 0.0222 µM | TGI (MDA-MB-468 breast): 0.0701 µM | GI50 (MOLT-4 leukemia): 1.69 µM | TGI (MOLT-4 leukemia): 3.35 µM | GI50 (NCI-H226 lung): 5.08 µM | TGI (NCI-H226 lung): 18.1 µM | GI50 (NCI-H23 lung): 3.6 µM | TGI (NCI-H23 lung): 12.4 µM | GI50 (NCI-H322M lung): 0.363 µM | TGI (NCI-H322M lung): 11.1 µM | GI50 (NCI-H522 lung): 0.255 µM | TGI (NCI-H522 lung): 3.82 µM | GI50 (NCI/ADR-RES ovarian): 12.6 µM | TGI (NCI/ADR-RES ovarian): 25.2 µM | GI50 (OVCAR-3 ovarian): 2.67 µM | TGI (OVCAR-3 ovarian): 9.15 µM | GI50 (OVCAR-4 ovarian): 3.75 µM | TGI (OVCAR-4 ovarian): 12.4 µM | GI50 (OVCAR-5 ovarian): 3.37 µM | TGI (OVCAR-5 ovarian): 16.1 µM | GI50 (OVCAR-8 ovarian): 4.46 µM | TGI (OVCAR-8 ovarian): 16.2 µM | GI50 (PC-3 prostate): 3 µM | TGI (PC-3 prostate): 7.88 µM | GI50 (RPMI-8226 leukemia): 2.29 µM | TGI (RPMI-8226 leukemia): 4.19 µM | GI50 (RXF 393 renal): 1.67 µM | TGI (RXF 393 renal): 3.34 µM | GI50 (SF-268 CNS): 0.943 µM | TGI (SF-268 CNS): 3.78 µM | GI50 (SF-295 CNS): 2.28 µM | TGI (SF-295 CNS): 4.89 µM | GI50 (SF-539 CNS): 1.95 µM | TGI (SF-539 CNS): 3.86 µM | GI50 (SK-MEL-28 melanoma): 2.15 µM | TGI (SK-MEL-28 melanoma): 4.05 µM | GI50 (SK-MEL-5 melanoma): 1.51 µM | TGI (SK-MEL-5 melanoma): 2.9 µM | GI50 (SK-OV-3 ovarian): 1.77 µM | TGI (SK-OV-3 ovarian): 5.72 µM | GI50 (SN12C renal): 1.96 µM | TGI (SN12C renal): 14.4 µM | GI50 (SNB-19 CNS): 3.72 µM | TGI (SNB-19 CNS): 13.8 µM | GI50 (SNB-75 CNS): 2.96 µM | TGI (SNB-75 CNS): 9 µM | GI50 (SW-620 colon): 3.8 µM | TGI (SW-620 colon): 12 µM | GI50 (T-47D breast): 0.0467 µM | TGI (T-47D breast): 1.06 µM | GI50 (TK-10 renal): 0.661 µM | TGI (TK-10 renal): 3.48 µM | GI50 (U251 glioblastoma): 1.91 µM | TGI (U251 glioblastoma): 3.54 µM | GI50 (UACC-257 melanoma): 2.03 µM | TGI (UACC-257 melanoma): 3.98 µM | GI50 (UACC-62 melanoma): 1.91 µM | TGI (UACC-62 melanoma): 3.56 µM | GI50 (UO-31 renal): 1.47 µM | TGI (UO-31 renal): 3.73 µM
